Test results as given in ChEMBL document CHEMBL2375215, “Phenylpropiophenone derivatives as potential anticancer agents: synthesis, biological evaluation and quantitative structure-activity relationship study” (Eur J Med Chem, 2013).

Legend:
[1] = (§1) Cytotoxicity against human Fem-X cells assessed as decrease in cell survival after 72 hrs by MTT assay; format: functional, cell-based
Fem-X = assay: as §1; format: functional, cell-based
K562 [2] = assay: Cytotoxicity against human K562 cells assessed as decrease in cell survival after 72 hrs by MTT assay; format: functional, cell-based; settings: for IC50: K562, 72 h
PC-3 [3] = assay: Cytotoxicity against human PC3 cells assessed as decrease in cell survival after 72 hrs by MTT assay; format: functional, cell-based; settings: for IC50: PC-3, 72 h
MCF7 [4] = assay: Cytotoxicity against human MCF7 cells assessed as decrease in cell survival after 72 hrs by MTT assay; format: functional, cell-based; settings: for IC50: MCF7, 72 h
HeLa [5] = assay: Cytotoxicity against human HeLa cells assessed as decrease in cell survival after 72 hrs by MTT assay; format: functional, cell-based
[6] = (§2) Cytotoxicity against human LS174 cells assessed as decrease in cell survival after 72 hrs by MTT assay; format: functional, cell-based; settings: LS174, 72 h
LS174 = assay: as §2; format: functional, cell-based
[7] = Selectivity index, ratio of IC50 for PHA-stimulated human PBMC to IC50 for human LS174 cells
MCF7 [8] = assay: Selectivity index, ratio of IC50 for human PBMC to IC50 for human MCF7 cells
PBMC [9] = assay: Cytotoxicity against human PBMC assessed as decrease in cell survival after 72 hrs by MTT assay; format: cell-based
HeLa [10] = assay: Selectivity index, ratio of IC50 for human PBMC to IC50 for human HeLa cells
[11] = Selectivity index, ratio of IC50 for PHA-stimulated human PBMC to IC50 for human Fem-X cells; format: functional
HeLa [12] = assay: Selectivity index, ratio of IC50 for PHA-stimulated human PBMC to IC50 for human HeLa cells
K562 [13] = assay: Selectivity index, ratio of IC50 for PHA-stimulated human PBMC to IC50 for human K562 cells
MCF7 [14] = assay: Selectivity index, ratio of IC50 for PHA-stimulated human PBMC to IC50 for human MCF7 cells
PBMC [15] = assay: Cytotoxicity against PHA-stimulated human PBMC assessed as decrease in cell survival after 72 hrs by MTT assay; format: cell-based
[16] = Selectivity index, ratio of IC50 for human PBMC to IC50 for human LS174 cells
PC-3 [17] = assay: Selectivity index, ratio of IC50 for PHA-stimulated human PBMC to IC50 for human PC3 cells
K562 [18] = assay: Selectivity index, ratio of IC50 for human PBMC to IC50 for human K562 cells
PC-3 [19] = assay: Selectivity index, ratio of IC50 for human PBMC to IC50 for human PC3 cells
[20] = Selectivity index, ratio of IC50 for human PBMC to IC50 for human Fem-X cells

Compound | IC50 ([1]; read-out: IC50) | IC50 ([1]; read-out: pIC50 (converted)) | Activity (Fem-X) | Activity (K562 [2]) | IC50 (K562 [2]; read-out: IC50) | IC50 (K562 [2]; read-out: pIC50 (converted)) | Activity (PC-3 [3]) | IC50 (PC-3 [3]; read-out: IC50) | IC50 (PC-3 [3]; read-out: pIC50 (converted)) | Activity (MCF7 [4]) | IC50 (MCF7 [4]; read-out: IC50) | IC50 (MCF7 [4]; read-out: pIC50 (converted)) | Activity (HeLa [5]) | IC50 (HeLa [5]; read-out: IC50) | IC50 (HeLa [5]; read-out: pIC50 (converted)) | IC50 ([6]; read-out: IC50) | IC50 ([6]; read-out: pIC50 (converted)) | Activity (LS174) | Ratio IC50 [7] | Ratio IC50 (MCF7 [8]) | other results
Cc1ccc(/C=C/C(=O)c2ccccc2O)cc1 | 21.2 µM | 21.2 µM | Dose-dependent effect | Dose-dependent effect | 18.9 µM | 18.9 µM | Dose-dependent effect | 27.6 µM | 27.6 µM | Dose-dependent effect | 33.9 µM | 33.9 µM | Dose-dependent effect | 20.6 µM | 20.6 µM | 41.2 µM | 41.2 µM | Dose-dependent effect |  |  | 
CCCNCC(O)COc1ccccc1C(=O)CCc1ccccc1F.Cl (racemic) | 38.2 µM | 38.2 µM | Dose-dependent effect | Dose-dependent effect | 37.6 µM | 37.6 µM | Dose-dependent effect | 46.4 µM | 46.4 µM | Dose-dependent effect | 18.5 µM | 18.5 µM | Dose-dependent effect | 16.4 µM | 16.4 µM | 72.2 µM | 72.2 µM | Dose-dependent effect | 0.67 | 2.57 | IC50 (PBMC [9]): 47.5 µM; Ratio IC50 (HeLa [10]): 2.89; Ratio IC50 [11]: 1.26; Ratio IC50 (HeLa [12]): 2.93; Ratio IC50 (K562 [13]): 1.28; Ratio IC50 (MCF7 [14]): 2.6; IC50 (PBMC [15]): 48.1 µM; Ratio IC50 [16]: 0.66; Ratio IC50 (PC-3 [17]): 1.04; Ratio IC50 (K562 [18]): 1.26; Ratio IC50 (PC-3 [19]): 1.02; Ratio IC50 [20]: 1.24
CCCNCC(O)COc1ccccc1C(=O)CCc1ccc(F)cc1.Cl (racemic) | 9.6 µM | 9.6 µM | Dose-dependent effect | Dose-dependent effect | 27.7 µM | 27.7 µM | Dose-dependent effect | 31.9 µM | 31.9 µM | Dose-dependent effect | 33 µM | 33 µM | Dose-dependent effect | 16.1 µM | 16.1 µM | 23.2 µM | 23.2 µM | Dose-dependent effect | 2.1 | 1.83 | IC50 (PBMC [9]): 60.3 µM; Ratio IC50 (HeLa [10]): 3.75; Ratio IC50 [11]: 5.08; Ratio IC50 (HeLa [12]): 3.03; Ratio IC50 (K562 [13]): 1.76; Ratio IC50 (MCF7 [14]): 1.48; IC50 (PBMC [15]): 48.8 µM; Ratio IC50 [16]: 2.6; Ratio IC50 (PC-3 [17]): 1.53; Ratio IC50 (K562 [18]): 2.18; Ratio IC50 (PC-3 [19]): 3.35; Ratio IC50 [20]: 6.28
CCCNCC(O)COc1ccccc1C(=O)CCc1ccccc1C.Cl (racemic) | 6.8 µM | 6.8 µM | Dose-dependent effect | Dose-dependent effect | 8.1 µM | 8.1 µM | Dose-dependent effect | 18 µM | 18 µM | Dose-dependent effect | 23.4 µM | 23.4 µM | Dose-dependent effect | 8.9 µM | 8.9 µM | 20.3 µM | 20.3 µM | Dose-dependent effect | 2.45 | 2.24 | IC50 (PBMC [9]): 52.4 µM; Ratio IC50 (HeLa [10]): 5.89; Ratio IC50 [11]: 7.32; Ratio IC50 (HeLa [12]): 5.6; Ratio IC50 (K562 [13]): 6.15; Ratio IC50 (MCF7 [14]): 2.13; IC50 (PBMC [15]): 49.8 µM; Ratio IC50 [16]: 2.58; Ratio IC50 (PC-3 [17]): 2.77; Ratio IC50 (K562 [18]): 6.47; Ratio IC50 (PC-3 [19]): 2.91; Ratio IC50 [20]: 7.71
CCCNCC(O)COc1ccccc1C(=O)CCc1ccc(C)cc1.Cl (racemic) | 12.7 µM | 12.7 µM | Dose-dependent effect | Dose-dependent effect | 14.7 µM | 14.7 µM | Dose-dependent effect | 24.7 µM | 24.7 µM | Dose-dependent effect | 31.7 µM | 31.7 µM | Dose-dependent effect | 21.7 µM | 21.7 µM | 20.8 µM | 20.8 µM | Dose-dependent effect | 1.99 | 1.54 | IC50 (PBMC [9]): 48.7 µM; Ratio IC50 (HeLa [10]): 2.24; Ratio IC50 [11]: 3.26; Ratio IC50 (HeLa [12]): 1.91; Ratio IC50 (K562 [13]): 2.82; Ratio IC50 (MCF7 [14]): 1.31; IC50 (PBMC [15]): 41.4 µM; Ratio IC50 [16]: 2.34; Ratio IC50 (PC-3 [17]): 1.68; Ratio IC50 (K562 [18]): 3.31; Ratio IC50 (PC-3 [19]): 1.97; Ratio IC50 [20]: 3.83
